ChEMBL document CHEMBL3045169, “In vitro evaluation of the antibacterial and antifungal activity of some new pyrazolyl-quinazolin-4(3H)-one derivatives” (2012)

Assays:
Format in all cases: functional
Aspergillus niger [1] = test: Antifungal activity against Aspergillus niger ATCC 6275 by agar cup-plate method relative to fluconazole; parameters: concentration or dose not given beside the values
Aspergillus niger [2] = test: Antifungal activity against Aspergillus niger ATCC 6275 at 10 ug/ml by agar cup-plate method; settings: read-out: IZ
Aspergillus niger [3] = test: Antifungal activity against Aspergillus niger ATCC 6275 at 20 ug/ml by agar cup-plate method; settings: read-out: IZ
Candida albicans [4] = test: Antifungal activity against Candida albicans ATCC 10231 by agar cup-plate method relative to fluconazole; parameters: concentration or dose not given beside the values
Candida albicans [5] = test: Antifungal activity against Candida albicans ATCC 10231 at 10 ug/ml by agar cup-plate method; settings: read-out: IZ
Candida albicans [6] = test: Antifungal activity against Candida albicans ATCC 10231 at 20 ug/ml by agar cup-plate method; settings: read-out: IZ
Pseudomonas aeruginosa [7] = test: Antibacterial activity against Pseudomonas aeruginosa ATCC 9027 by agar cup-plate method relative to penicillin-G; parameters: concentration or dose not given beside the values
Pseudomonas aeruginosa [8] = test: Antibacterial activity against Pseudomonas aeruginosa ATCC 9027 at 50 ug/ml by agar cup-plate method; settings: read-out: IZ
Pseudomonas aeruginosa [9] = test: Antibacterial activity against Pseudomonas aeruginosa ATCC 9027 at 100 ug/ml by agar cup-plate method; settings: read-out: IZ
Escherichia coli [10] = test: Antibacterial activity against Escherichia coli ATCC 25922 by agar cup-plate method relative to penicillin-G; parameters: concentration or dose not given beside the values
Escherichia coli [11] = test: Antibacterial activity against Escherichia coli ATCC 25922 at 50 ug/ml by agar cup-plate method; settings: read-out: IZ
Escherichia coli [12] = test: Antibacterial activity against Escherichia coli ATCC 25922 at 100 ug/ml by agar cup-plate method; settings: read-out: IZ
Bacillus subtilis [13] = test: Antibacterial activity against Bacillus subtilis ATCC 6633 by agar cup plate method relative to penicillin-G; parameters: concentration or dose not given beside the values
Bacillus subtilis [14] = test: Antibacterial activity against Bacillus subtilis ATCC 6633 at 50 ug/ml by agar cup plate method; settings: read-out: IZ
Bacillus subtilis [15] = test: Antibacterial activity against Bacillus subtilis ATCC 6633 at 100 ug/ml by agar cup plate method; settings: read-out: IZ
Staphylococcus aureus [16] = test: Antibacterial activity against Staphylococcus aureus ATCC 9144 by agar cup-plate method relative to penicillin-G; parameters: concentration or dose not given beside the values
Staphylococcus aureus [17] = test: Antibacterial activity against Staphylococcus aureus ATCC 9144 at 50 ug/ml by agar cup-plate method; settings: read-out: IZ
Staphylococcus aureus [18] = test: Antibacterial activity against Staphylococcus aureus ATCC 9144 at 100 ug/ml by agar cup-plate method; settings: read-out: IZ

Structure (SMILES): O=c1c2cc(I)ccc2nc(Cc2ccccc2Nc2ccccc2)n1NC1=NNC(c2ccccc2)C1 (stereo not drawn)
- Activity (Aspergillus niger [1]): 58.12%
- zone of inhibition at 10 µg/mL (Aspergillus niger [2]): 15 mm
- zone of inhibition at 20 µg/mL (Aspergillus niger [3]): 17 mm
- Activity (Candida albicans [4]): 68.81%
- zone of inhibition at 10 µg/mL (Candida albicans [5]): 15 mm
- zone of inhibition at 20 µg/mL (Candida albicans [6]): 18 mm
- Activity (Pseudomonas aeruginosa [7]): 48.61%
- zone of inhibition at 50 µg/mL (Pseudomonas aeruginosa [8]): 0 mm
- zone of inhibition at 100 µg/mL (Pseudomonas aeruginosa [9]): 7 mm
- Activity (Escherichia coli [10]): 40.81%
- zone of inhibition at 50 µg/mL (Escherichia coli [11]): 0 mm
- zone of inhibition at 100 µg/mL (Escherichia coli [12]): 6 mm
- Activity (Bacillus subtilis [13]): 81.79%
- zone of inhibition at 50 µg/mL (Bacillus subtilis [14]): 18 mm
- zone of inhibition at 100 µg/mL (Bacillus subtilis [15]): 22 mm
- Activity (Staphylococcus aureus [16]): 70.87%
- zone of inhibition at 50 µg/mL (Staphylococcus aureus [17]): 17 mm
- zone of inhibition at 100 µg/mL (Staphylococcus aureus [18]): 21 mm
